Here are results for four substances from patent US9422573B2, “Methods and means for generating microbial disease resistant plants” (VIB VZW, priority 2011, dated 2016).

One assay has as its system A. brassicicola. The class given is cell-based, Alternaria brassicicola. The following applies: for 50% growth inhibitory concentration (IC50): 48 h. The text has this: (§1) Next, we assessed the potential antifungal activity of At25 (ARACIN1) and At20 (ARACIN2) by an in vitro antifungal bioassay. Both propeptide and mature forms of At25 and At20 were produced by chemical synthesis (see Materials and Methods) and tested against A. brassicicola, B. cinerea B05-10 and B. cinerea Korea by means of a microtiter broth dilution assay (FIG. 9).
(§2) 11. Antifungal Activity Assay
(§3) Synthetic proAt25 peptide, mature At25 peptide, proat20 and mature At20 peptides were purchased from genscript (on the World Wide web at genscript.com). Stock solutions of 2×10^7 spores/ml of Botrytis cinerea B05-10, Botrytis cinerea Korea, Fusarium oxysporum and Alternaria brassicicola were diluted in ½ PDB (12 g/l Potato Dextrose Broth in water) to a final concentration of 2×10^4 spores/ml. After adding 196 μl aliquots of these spore dilutions to 4 μl of 2-fold dilution series of At25 in DMSO (starting from a 100 μg/ml stock solution) in microtiter plates, the plates were incubated on 23° C. for 48 h. DMSO was used as a negative control. Growth of the fungi was evaluated both microscopically and by measuring the OD600. Each fungus was tested in duplicate in the microtiter plates. Additionally, for Alternaria brassicicola this antifungal assay was repeated twice. For each assay, the average OD600 of each dilution and the DMSO control were compared using a t-test.

In a further assay the test system is B. cinerea Korea. The class given is cell-based, Botrytis cinerea. Particulars: for growth inhibition: Korea.
Source text: as §1, §2, §3

For a further assay, the system named is B. cinerea B05-10. The class given is cell-based, Botrytis cinerea.
Source text: as §1, §2, §3

Read-outs that look alike come from different tables or passages of the source.

As for “H-GSCGAPISKYDFQVLAKRPPPCRRPRLENTEDVTHTTRP-OH (cysteine pairing not given here) [mature At20]”, the “50% growth inhibitory concentration (IC50)” value with A. brassicicola came out at 1.55 ± 0.11 µg/mL. Further, in the assay with A. brassicicola (A. brassicicola, mature At20 versus proAt20), the “reduction of IC50 value compared with the propeptide (proAt20)” value is on record as 86%. Also, the “antifungal activity in comparison with proAt20 (in words)” value in the assay with B. cinerea Korea (B. cinerea Korea) and with B. cinerea B05-10 (B. cinerea B05-10) was “remarkably increased” in each case.
For “H-GSCGASIAEFNSSQILAKRAPPCRRPRLQNSEDVTHTTLP-OH (cysteine pairing not given here) [mature At25]”, the “50% growth inhibitory concentration (IC50)” value amounted to 5.46 ± 0.57 µg/mL in the assay with A. brassicicola; 2.03 ± 0.44 µg in the assay on B. cinerea Korea (B. cinerea Korea, 48 h, 23° C., OD600); 3.05 ± 0.25 µg/mL with B. cinerea B05-10 (B05-10, 48 h). Besides, the “concentration from which growth inhibition / statistically significant antifungal effect starts” value in the assay on A. brassicicola (A. brassicicola) came to 1 µg/mL. Also, the growth inhibition with B. cinerea Korea (10 μg mL^−1) turned out to be 94%; with B. cinerea B05-10 (B05-10, 10 μg mL^−1) it was 95.7%.
In the case of “NH2-RRSDTGPDISTPPSGSCGASIAE FNSSQILAKRAPPCRRPRLQNSEDVTHTTLP-COOH (H-RRSDTGPDISTPPSGSCGASIAEFNSSQILAKRAPPCRRPRLQNSEDVTHTTLP-OH; cysteine pairing not given here; listed as Arabidopsis thaliana) [proAt25]”, the “inhibitory activity (in words)” value is “no statistically significant inhibitory activities” in the assay with A. brassicicola (A. brassicicola, data not shown); “no statistically significant inhibitory activities” in the assay with B. cinerea Korea (B. cinerea Korea, data not shown); “no statistically significant inhibitory activities” with B. cinerea B05-10 (B. cinerea B05-10, data not shown).
On to “NH2-SIPDDDMGPAIYTPPSGSCGA PISKYDFQVLAKRPPPCRRPRLENTEDVTHTTRP-COOH [proAt20]”, for which the growth inhibition in the assay on A. brassicicola (5 μg mL^−1) is listed as 36.7%; with B. cinerea Korea (20 μg mL^−1), 64.8%; in the assay on B. cinerea B05-10 (B05-10, 20 μg mL^−1), 62%. Also, the “50% growth inhibitory concentration (IC50)” value with A. brassicicola was 11.32 ± 1.28 µg/mL. The “concentration from which growth inhibition / statistically significant antifungal effect starts” value in the assay with A. brassicicola (A. brassicicola) was 5 µg/mL. Also, the “concentration from which statistically significant antifungal effect starts” value with B. cinerea Korea (B. cinerea Korea) and in the assay on B. cinerea B05-10 (B. cinerea B05-10) was 20 µg/mL throughout.
